Experimental data published in patent US8436023B2, “Cyclohexyl-azetidinyl antagonists of CCR2” (Janssen Pharmaceutica N.V., priority 2010, dated 2013).
Counter-ions that a name gives are not always drawn.

Biological target: T1, CCR2 (Homo sapiens, UniProt P41597)
T1 construct: host or cells: THP-1 human monocytic cells
T1 sequence (P41597 1-360 isoform P41597-2): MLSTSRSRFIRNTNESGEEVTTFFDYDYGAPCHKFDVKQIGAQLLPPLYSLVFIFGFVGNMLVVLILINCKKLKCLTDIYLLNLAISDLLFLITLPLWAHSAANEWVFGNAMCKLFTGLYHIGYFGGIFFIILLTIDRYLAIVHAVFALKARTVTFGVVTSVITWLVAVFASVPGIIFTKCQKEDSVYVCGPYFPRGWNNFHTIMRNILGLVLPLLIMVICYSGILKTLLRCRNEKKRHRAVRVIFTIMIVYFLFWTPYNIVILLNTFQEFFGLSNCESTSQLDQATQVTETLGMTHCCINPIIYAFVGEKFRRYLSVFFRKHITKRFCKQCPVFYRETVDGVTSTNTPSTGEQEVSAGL
Test: MCP-1 Receptor Binding Assay in THP-1 Cells
Conditions: 0.5 nM 125I labeled MCP-1, 2 hours at 30° C., less polar isomer tested where stated, read-out: Inhibition of MCP-1 Binding IC50, CCR2 Binding
In short: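 Whole THP-1 cells incubated 2 h at 30 °C with 0.5 nM 125I-MCP-1 and varying concentrations of test compound; bound radioactivity counted after filter harvesting. Where no IC50 obtained, % inhibition given at 25 μM.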

Compound	IC50 [nM]
CCOC(=O)C1CCC(N2CC(NC(=O)CNc3nn(CC(F)(F)F)c4ccc(C(F)(F)F)cc34)C2)CC1 (centres unmarked) [Example 72, 4-(3-{2-[1-(2,2,2-Trifluoro-ethyl)-5-trifluoromethyl-1H-indazol-3-ylamino]-acetylamino}-azetidin-1-yl)-cyclohexane carboxylic acid ethyl ester]	230
NC(=O)n1nc(NCC(=O)NC2CN(C3CCC(O)(c4nccs4)CC3)C2)c2cc(C(F)(F)F)ccc21 (centres unmarked) [Example 81, 3-({[1-(4-Hydroxy-4-thiazol-2-yl-cyclohexyl)-azetidin-3-ylcarbamoyl]-methyl}-amino)-5-trifluoromethyl-indazole-1-carboxylic acid amide]	29
Cn1nc(NCC(=O)NC2CN(C3CCC(O)(c4cncs4)CC3)C2)c2cc(C(F)C(F)(F)F)ccc21 (centres unmarked) [Example 65, N-[1-(4-Hydroxy-4-thiazol-5-yl-cyclohexyl)-azetidin-3-yl]-2-[1-methyl-5-(1,2,2,2-tetrafluoro-ethyl)-1H-indazol-3-ylamino]-acetamide]	100
NC1CCC(N2CC(NC(=O)CNc3noc4ccc(C(F)(F)F)cc34)C2)CC1 (centres unmarked) [Example 11, N-[1-(4-Amino-cyclohexyl)-azetidin-3-yl]-2-(5-trifluoromethyl-benzo[d]isoxazol-3-ylamino)-acetamide TFA salt]	2900
CCOC(=O)C1CCC(N2CC(NC(=O)CNc3nn(S(C)(=O)=O)c4ccc(C(F)(F)F)cc34)C2)CC1 (centres unmarked) [Example 99, 4-{3-[2-(1-Methanesulfonyl-5-trifluoromethyl-1H-indazol-3-ylamino)-acetylamino]-azetidin-1-yl}-cyclohexane carboxylic acid ethyl ester]	230
O=C(CNc1n[nH]c2ccc(C(F)(F)F)cc12)NC1CN(C2CCC(O)(c3cccnc3)CC2)C1 (centres unmarked) [Example 41, N-[1-(4-Hydroxy-4-pyridin-3-yl-cyclohexyl)-azetidin-3-yl]-2-(5-trifluoromethyl-1H-indazol-3-ylamino)-acetamide]	31
Cc1cnc(C2(O)CCC(N3CC(NC(=O)CNc4nn(CCO)c5ccc(C(F)(F)F)cc45)C3)CC2)s1 (centres unmarked) [Example 77, 2-[1-(2-Hydroxy-ethyl)-5-trifluoromethyl-1H-indazol-3-ylamino]-N-{1-[4-hydroxy-4-(5-methyl-thiazol-2-yl)-cyclohexyl]-azetidin-3-yl}-acetamide]	31
O=C(CNc1noc2ccc(C(F)(F)F)cc12)NC1CN(C2CCC(O)(c3nccs3)CC2)C1 (centres unmarked) [Example 4, N-[1-(4-Hydroxy-4-thiazol-2-yl-cyclohexyl)-azetidin-3-yl]-2-(5-trifluoromethyl-benzo[d]isoxazol-3-ylamino)-acetamide]	31
CN(C)c1cccc(C2(O)CCC(N3CC(NC(=O)CNc4nn(C)c5ccc(C(F)(F)F)cc45)C3)CC2)c1 (centres unmarked) [Example 20, N-{1-[4-(3-Dimethylamino-phenyl)-4-hydroxy-cyclohexyl]-azetidin-3-yl}-2-(1-methyl-5-trifluoromethyl-1H-indazol-3-ylamino)-acetamide]	4.8
O=C(CNc1noc2ccc(C(F)(F)F)cc12)NC1CN(C2CCC(O)CC2)C1 (centres unmarked) [Example 9, N-[1-(4-Hydroxy-cyclohexyl)-azetidin-3-yl]-2-(5-trifluoromethyl-benzo[d]isoxazol-3-ylamino)-acetamide]	770
O=C(CNc1noc2ccc(C(F)(F)F)cc12)NC1CN(C2CCC(O)(c3cncs3)CC2)C1 (centres unmarked) [Example 3, N-[1-(4-Hydroxy-4-thiazol-5-yl-cyclohexyl)-azetidin-3-yl]-2-(5-trifluoromethyl-benzo[d]isoxazol-3-ylamino)-acetamide]	31
CCc1ncc(C2(O)CCC(N3CC(NC(=O)CNc4nn(C)c5ccc(C(F)(F)F)cc45)C3)CC2)s1 (centres unmarked) [Example 23, N-{1-[4-(2-Ethyl-thiazol-5-yl)-4-hydroxy-cyclohexyl]-azetidin-3-yl}-2-(1-methyl-5-trifluoromethyl-1H-indazol-3-ylamino)-acetamide]	180
O=C(CNc1nn(CCO)c2ccc(C(F)(F)F)cc12)NC1CN(C2CCC(O)(c3cncs3)CC2)C1 (centres unmarked) [Example 76]	29
CCOC(=O)C1CCC(N2CC(NC(=O)CNc3noc4ccc(C(F)(F)F)cc34)C2)CC1 (centres unmarked) [Example 6, 4-{3-[2-(5-Trifluoromethyl-benzo[d]isoxazol-3-ylamino)-acetylamino]-azetidin-1-yl}-cyclohexanecarboxylic acid ethyl ester]	29
Cn1nc(NCC(=O)NC2CN(C3CCC(CO)CC3)C2)c2cc(C(F)(F)F)ccc21 (centres unmarked) [Example 33, N-[1-(4-Hydroxymethyl-cyclohexyl)-azetidin-3-yl]-2-(1-methyl-5-trifluoromethyl-1H-indazol-3-ylamino)-acetamide]	44
NC(=O)n1nc(NCC(=O)NC2CN(C3CCC(O)CC3)C2)c2cc(C(F)(F)F)ccc21 (centres unmarked) [Example 85, 3-({[1-(4-Hydroxy-cyclohexyl)-azetidin-3-ylcarbamoyl]-methyl}-amino)-5-trifluoromethyl-indazole-1-carboxylic acid amide]	530
Cn1nc(NCC(=O)NC2CN(C3CCC(O)(c4nccs4)CC3)C2)c2cc(C(F)C(F)(F)F)ccc21 (centres unmarked) [Example 66, N-[1-(4-Hydroxy-4-thiazol-2-yl-cyclohexyl)-azetidin-3-yl]-2-[1-methyl-5-(1,2,2,2-tetrafluoro-ethyl)-1H-indazol-3-ylamino]-acetamide]	37
C=CCOC1CCC(N2CC(NC(=O)CNc3nn(C)c4ccc(C(F)(F)F)cc34)C2)CC1 (centres unmarked) [Example 37, N-[1-(4-Allyloxy-cyclohexyl)-azetidin-3-yl]-2-(1-methyl-5-trifluoromethyl-1H-indazol-3-ylamino)-acetamide]	136
CCC(O)[C@H]1CC[C@@H](N2CC(NC(=O)CNc3n[nH]c4ncc(C(F)(F)F)cc34)C2)CC1 (single isomer, unassigned) [Example 105]	330
CC(C)C1CCC(N2CC(NC(=O)CNc3nn(Cc4ccccc4)c4ccc(C(F)(F)F)cc34)C2)CC1 (centres unmarked) [Example 98, 2-(1-Benzyl-5-trifluoromethyl-1H-indazol-3-ylamino)-N-[1-(4-isopropyl-cyclohexyl)-azetidin-3-yl]-acetamide]	5900
Cn1nc(NCC(=O)NC2CN(C3CCC(O)(c4cncs4)CC3)C2)c2cc(C(O)C(F)(F)F)ccc21 (centres unmarked) [Example 61, N-[1-(4-Hydroxy-4-thiazol-5-yl-cyclohexyl)-azetidin-3-yl]-2-[1-methyl-5-(2,2,2-trifluoro-1-hydroxy-ethyl)-1H-indazol-3-ylamino]-acetamide]	1700
COc1cccc(C2(O)CCC(N3CC(NC(=O)CNc4nn(Cc5ccccc5)c5ccc(C(F)(F)F)cc45)C3)CC2)n1 (centres unmarked) [Example 96, 2-(1-Benzyl-5-trifluoromethyl-1H-indazol-3-ylamino)-N-{1-[4-hydroxy-4-(6-methoxy-pyridin-2-yl)-cyclohexyl]-azetidin-3-yl}-acetamide]	270
NC(=O)Cc1ccc(C2CCC(N3CC(NC(=O)CNc4n[nH]c5ccc(C(F)(F)F)cc45)C3)CC2)cc1 (centres unmarked) [Example 47, 2-[4-(4-{3-[2-(5-Trifluoromethyl-1H-indazol-3-ylamino)-acetylamino]-azetidin-1-yl}-cyclohexyl)-phenyl]-acetamide]	12
